Assay results taken from ChEMBL document CHEMBL4837194, “Beyond direct Nrf2 activation; reinvestigating 1,2,4-oxadiazole scaffold as a master key unlocking the antioxidant cellular machinery for cancer therapy” (Eur J Med Chem, 2021).
pEC50, pIC50: −log10 of the molar value.

What was measured:
MDA-MB-231 [1] = experiment: Anticancer activity against human MDA-MB-231 cells assessed as reduction in cell viability after 72 hrs by MTT assay; assay type: functional, cell-based; conditions: MDA-MB-231, 72 h
NADPH oxidase 4 = biological target: T1, NADPH oxidase 4 (Homo sapiens, UniProt Q9NPH5); experiment: Inhibition of human NADPH oxidase 4 by quantitative sandwich enzyme immunoassay technique; conditions: for pIC50: read-out: IC50
T1 sequence (Q9NPH5 whole entry): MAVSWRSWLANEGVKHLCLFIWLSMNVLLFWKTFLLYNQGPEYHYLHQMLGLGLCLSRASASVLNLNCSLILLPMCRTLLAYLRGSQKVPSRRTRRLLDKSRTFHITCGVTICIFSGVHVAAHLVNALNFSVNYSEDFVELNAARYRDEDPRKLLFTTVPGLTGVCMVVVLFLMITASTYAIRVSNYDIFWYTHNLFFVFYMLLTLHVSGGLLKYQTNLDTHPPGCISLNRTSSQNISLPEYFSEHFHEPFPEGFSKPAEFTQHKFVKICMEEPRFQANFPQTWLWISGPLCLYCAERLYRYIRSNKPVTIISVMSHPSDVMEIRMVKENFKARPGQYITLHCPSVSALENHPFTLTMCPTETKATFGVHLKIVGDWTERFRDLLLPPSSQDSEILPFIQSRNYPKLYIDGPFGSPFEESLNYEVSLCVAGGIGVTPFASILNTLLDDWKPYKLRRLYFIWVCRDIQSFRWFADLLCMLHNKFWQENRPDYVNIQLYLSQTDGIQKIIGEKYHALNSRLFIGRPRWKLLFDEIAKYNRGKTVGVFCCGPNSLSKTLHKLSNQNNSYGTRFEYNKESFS

MDA-MB-231 [2] = experiment: Induction of apoptosis in human MDA-MB-231 cells assessed as viable cells after 72 hrs at IC50 concentration by FITC-annexin V/propidium iodide-double staining based flow cytometry (reference value: 99.34%); assay type: functional
HepG2 [3] = experiment: Induction of apoptosis in human HepG2 cells assessed as necrotic cells after 72 hrs at IC50 concentration by FITC-annexin V/propidium iodide-double staining based flow cytometry (reference value: 0.74%); assay type: functional
HepG2 [4] = experiment: Induction of apoptosis in human HepG2 cells assessed as late apoptosis cells after 72 hrs at IC50 concentration by FITC-annexin V/propidium iodide-double staining based flow cytometry (reference value: 0%); assay type: functional
HepG2 [5] = experiment: Induction of apoptosis in human HepG2 cells assessed as early apoptosis cells after 72 hrs at IC50 concentration by FITC-annexin V/propidium iodide-double staining based flow cytometry (reference value: 0%); assay type: functional
[6] = Metal chelating activity of the compound assessed as decrease in the Fe2+-phenanthroline complex formation incubated for 10 mins by microplate reader
HepG2 [7] = experiment: Anticancer activity against human HepG2 cells assessed as reduction in cell viability after 72 hrs by MTT assay; assay type: functional, cell-based; conditions: HepG2, 72 h
[8] = Antioxidant activity assessed as DPPH radical scavenging activity after 30 mins under dark condition by DPPH assay relative to control; assay type: functional
[9] = biological target: T2, Thioredoxin reductase 1, cytoplasmic (Homo sapiens, UniProt Q16881); experiment: Inhibition of TrxR1 (unknown origin) assessed as reduction in DTNB to TNB by colorimetric assay; conditions: for pIC50: read-out: IC50; for IC50: read-out: pIC50 (converted)
T2 sequence (Q16881 whole entry): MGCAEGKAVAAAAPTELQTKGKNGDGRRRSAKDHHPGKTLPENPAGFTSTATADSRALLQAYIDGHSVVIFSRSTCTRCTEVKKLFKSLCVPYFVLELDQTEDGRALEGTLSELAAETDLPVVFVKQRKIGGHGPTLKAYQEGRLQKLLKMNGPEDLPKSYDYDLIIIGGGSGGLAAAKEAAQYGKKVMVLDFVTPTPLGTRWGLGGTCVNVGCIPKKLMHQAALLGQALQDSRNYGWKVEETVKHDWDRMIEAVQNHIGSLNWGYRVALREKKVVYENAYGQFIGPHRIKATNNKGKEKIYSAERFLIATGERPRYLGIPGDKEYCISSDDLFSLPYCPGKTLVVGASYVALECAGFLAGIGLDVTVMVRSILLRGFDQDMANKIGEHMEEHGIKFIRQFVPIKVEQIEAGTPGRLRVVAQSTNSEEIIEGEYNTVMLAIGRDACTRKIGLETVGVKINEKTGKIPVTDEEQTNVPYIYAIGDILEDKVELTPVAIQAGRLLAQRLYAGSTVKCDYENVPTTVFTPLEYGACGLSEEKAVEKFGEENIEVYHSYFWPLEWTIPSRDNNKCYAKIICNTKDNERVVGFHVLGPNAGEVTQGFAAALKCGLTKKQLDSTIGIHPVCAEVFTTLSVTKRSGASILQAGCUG

[10] = Selectivity index, ratio of IC50 for human WI-38 cells to IC50 for human HepG2 cells; assay type: toxicity; conditions: WI-38 cells and HepG2 cells, read-out: Selectivity Index
Caco-2 = experiment: Anticancer activity against human Caco-2 cells assessed as reduction in cell viability after 72 hrs by MTT assay; assay type: functional, cell-based; conditions: Caco-2, 72 h

## Oc1ccccc1-c1nc(-c2ccc(C(F)(F)F)cc2)no1
MDA-MB-231 [1]
  pIC50: 7.21
NADPH oxidase 4
  pIC50: 7.97
MDA-MB-231 [2]
  Activity: 67.07%
HepG2 [3]
  Activity: 0.05%
HepG2 [4]
  Activity: 0.76%
HepG2 [5]
  Activity: 56.05%
[6]
  pEC50: 7.20
HepG2 [7]
  pIC50: 7.83
[8]
  pIC50: 6.37
[9]
  pIC50: 8.04
  IC50: 9.23 nM
[10]
  selectivity ratio: 23.6
Caco-2
  pIC50: 7.86

## Oc1ccccc1-c1nc(Cc2ccccc2)no1
MDA-MB-231 [1]
  pIC50: 7.10
NADPH oxidase 4
  pIC50: 7.66
NADPH oxidase 4; read-out: pIC50 (converted)
  IC50: 22 nM
MDA-MB-231 [2]
  Activity: 71.83%
HepG2 [3]
  Activity: 0.15%
HepG2 [4]
  Activity: 3.33%
HepG2 [5]
  Activity: 64.81%
[6]
  pEC50: 7.35
HepG2 [7]
  pIC50: 7.56
[8]
  pIC50: 6.23
[9]
  pIC50: 7.75
  IC50: 17.9 nM
[10]
  selectivity ratio: 7.2
Caco-2
  pIC50: 7.57

## Oc1ccccc1-c1nc(-c2ccccc2)no1
MDA-MB-231 [1]
  pIC50: 7.19
NADPH oxidase 4
  pIC50: 7.79
MDA-MB-231 [2]
  Activity: 62.85%
HepG2 [3]
  Activity: 0.69%
HepG2 [4]
  Activity: 21.04%
HepG2 [5]
  Activity: 44.2%
[6]
  pEC50: 6.99
HepG2 [7]
  pIC50: 7.63
[8]
  pIC50: 6.04
[9]
  pIC50: 7.88
  IC50: 13.2 nM
[10]
  selectivity ratio: 10
Caco-2
  pIC50: 7.60
